Source: BindingDB's records for patent US20240383915 (Genentech, 2024)
pIC50: −log10 of the molar value.

Biological target: GTPase KRas (Homo sapiens, UniProt P01116)
Test: KRAS Biochemical Assay
Method: KRAS Biochemical Assay—BODIPY-GDP Exchange TR-FRET. Biochemical compound potencies were assessed by evaluating inhibition of SOS1-mediated nucleotide exchange in KRAS G12D. The SOS1-promoted exchange of fluorescently-labeled GDP (BODIPY-GDP) was monitored by time-resolved fluorescence resonance energy transfer (TR-FRET). Compounds solubilized in DMSO were dispensed as concentration series into 384-well white assay plates. […] The reaction was initiated with the addition of 5 μL of 3 nM recombinant human SOS1 and 300 nM BODIPY-GDP in assay buffer. […] The TR-FRET ratio was determined as the fluorescence at 520 nm divided by the fluorescence at 490 nm multiplied by 10,000. […] The normalized TR-FRET results were plotted against compound concentration, and the data fit to a 4-parameter Hill equation to determine the IC50 values.

Sequence of GTPase KRas (P01116 whole entry): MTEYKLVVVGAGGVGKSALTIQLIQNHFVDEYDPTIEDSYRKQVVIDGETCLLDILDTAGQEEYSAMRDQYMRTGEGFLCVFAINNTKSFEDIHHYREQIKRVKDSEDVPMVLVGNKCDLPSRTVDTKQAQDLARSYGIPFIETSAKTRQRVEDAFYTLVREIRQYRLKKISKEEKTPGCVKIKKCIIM

Q: Cc1cc(N)nc(-c2c(Cl)c3c4c(nc(OCC56CC(CO5)C6)nc4c2F)N([C@H](C)c2cccnc2N)CCO3)c1C(F)(F)F [US20240383915, Example 143] was tested. Which pIC50 did it give?
A: 9.06
